Experimental data: ChEMBL document CHEMBL5126592, “Design, synthesis and activity against drug-resistant bacteria evaluation of C-20, C-23 modified 5-O-mycaminosyltylonolide derivatives” (Eur J Med Chem, 2022)
Converted amounts (≈) assume the structure as drawn.

Columns and labels:
Assay type in all cases: functional
Settings in all cases: time 16-20 hrs
Escherichia coli = experiment: Antibacterial activity against Escherichia coli ATCC 25922 incubated for 16 to 20 hrs by broth microdilution method
Cronobacter sakazakii = experiment: Antibacterial activity against Cronobacter sakazakii ATCC 29544 incubated for 16 to 20 hrs by broth microdilution method
Klebsiella pneumoniae = experiment: Antibacterial activity against Klebsiella pneumoniae ATCC 13883 incubated for 16 to 20 hrs by broth microdilution method
Staphylococcus aureus = experiment: Antibacterial activity against Staphylococcus aureus ATCC 25923 incubated for 16 to 20 hrs by broth microdilution method

| SMILES | MIC (Escherichia coli) [µg/mL] | MIC (Cronobacter sakazakii) [µg/mL] | MIC (Klebsiella pneumoniae) [µg/mL] | MIC (Staphylococcus aureus) [µg/mL] |
| --- | --- | --- | --- | --- |
| CC[C@H]1OC(=O)C[C@@H](O)[C@H](C)[C@@H](O[C@@H]2O[C@H](C)[C@@H](O)[C@H](N(C)C)[C@H]2O)[C@@H](CCN(Cc2ccc(C)cc2)Cc2cn(-c3cnc4ccccc4c3)nn2)C[C@@H](C)C(=O)/C=C/C(C)=C/[C@@H]1CO | 16 (≈ 17.6 µM) | 16 (≈ 17.6 µM) | 16 (≈ 17.6 µM) | 0.5 (≈ 0.549 µM) |
| CC[C@H]1OC(=O)C[C@@H](O)[C@H](C)[C@@H](O[C@@H]2O[C@H](C)[C@@H](O)[C@H](N(C)C)[C@H]2O)[C@@H](CCN(Cc2ccc(C(C)C)cc2)Cc2cn(-c3cnc4ccccc4c3)nn2)C[C@@H](C)C(=O)/C=C/C(C)=C/[C@@H]1CO | 16 (≈ 17 µM) | 32 (≈ 34.1 µM) | 32 (≈ 34.1 µM) | 0.5 (≈ 0.532 µM) |
| CC[C@H]1OC(=O)C[C@@H](O)[C@H](C)[C@@H](O[C@@H]2O[C@H](C)[C@@H](O)[C@H](N(C)C)[C@H]2O)[C@@H](CCN(Cc2ccccc2)Cc2cn(-c3cnc4ccccc4c3)nn2)C[C@@H](C)C(=O)/C=C/C(C)=C/[C@@H]1CN1CC(C)CC(C)C1 (stereo partly specified) | 16 (≈ 16.1 µM) | 16 (≈ 16.1 µM) | 16 (≈ 16.1 µM) | 4 (≈ 4.03 µM) |
| CC[C@H]1OC(=O)C[C@@H](O)[C@H](C)[C@@H](O[C@@H]2O[C@H](C)[C@@H](O)[C@H](N(C)C)[C@H]2O)[C@@H](CCN(Cc2ccncc2)Cc2cn(-c3cnc4ccccc4c3)nn2)C[C@@H](C)C(=O)/C=C/C(C)=C/[C@@H]1CO | 32 (≈ 35.6 µM) | 32 (≈ 35.6 µM) | 32 (≈ 35.6 µM) | 0.125 (≈ 0.139 µM) |
| CC[C@H]1OC(=O)C[C@@H](O)[C@H](C)[C@@H](O[C@@H]2O[C@H](C)[C@@H](O)[C@H](N(C)C)[C@H]2O)[C@@H](CCN(C)Cc2cn(-c3cnc4ccccc4c3)nn2)C[C@@H](C)C(=O)/C=C/C(C)=C/[C@@H]1CN(C)C(C)C | 8 (≈ 9.13 µM) | 16 (≈ 18.3 µM) | 8 (≈ 9.13 µM) | 0.5 (≈ 0.571 µM) |
| CC[C@H]1OC(=O)C[C@@H](O)[C@H](C)[C@@H](O[C@@H]2O[C@H](C)[C@@H](O)[C@H](N(C)C)[C@H]2O)[C@@H](CCN(Cc2ccc(C(F)(F)F)cc2)Cc2cn(-c3cnc4ccccc4c3)nn2)C[C@@H](C)C(=O)/C=C/C(C)=C/[C@@H]1CN1CCCCC1 | 8 (≈ 7.75 µM) | 16 (≈ 15.5 µM) | 16 (≈ 15.5 µM) | 1 (≈ 0.969 µM) |
| CC[C@H]1OC(=O)C[C@@H](O)[C@H](C)[C@@H](O[C@@H]2O[C@H](C)[C@@H](O)[C@H](N(C)C)[C@H]2O)[C@@H](CCN(Cc2ccc(C(F)(F)F)cc2)Cc2cn(-c3cnc4ccccc4c3)nn2)C[C@@H](C)C(=O)/C=C/C(C)=C/[C@@H]1CN1CCC(O)CC1 | 16 (≈ 15.3 µM) | 32 (≈ 30.5 µM) | 32 (≈ 30.5 µM) | 2 (≈ 1.91 µM) |
| CC[C@H]1OC(=O)C[C@@H](O)[C@H](C)[C@@H](O[C@@H]2O[C@H](C)[C@@H](O)[C@H](N(C)C)[C@H]2O)[C@@H](CCN(Cc2cncnc2)Cc2cn(-c3cnc4ccccc4c3)nn2)C[C@@H](C)C(=O)/C=C/C(C)=C/[C@@H]1CO | 32 (≈ 35.6 µM) | 32 (≈ 35.6 µM) | 32 (≈ 35.6 µM) | 0.5 (≈ 0.556 µM) |

More lines, in order of falling MIC (Escherichia coli), values ahead:

| MIC (Escherichia coli) [µg/mL] | MIC (Cronobacter sakazakii) [µg/mL] | MIC (Klebsiella pneumoniae) [µg/mL] | MIC (Staphylococcus aureus) [µg/mL] | SMILES |
| --- | --- | --- | --- | --- |
| 8 (≈ 7.73 µM) | 32 (≈ 30.9 µM) | 16 (≈ 15.5 µM) | 0.5 (≈ 0.483 µM) | CC[C@H]1OC(=O)C[C@@H](O)[C@H](C)[C@@H](O[C@@H]2O[C@H](C)[C@@H](O)[C@H](N(C)C)[C@H]2O)[C@@H](CCN(Cc2ccc(N(C)C)cc2)Cc2cn(-c3cnc4ccccc4c3)nn2)C[C@@H](C)C(=O)/C=C/C(C)=C/[C@@H]1CN1CCCCCCC1 |
| 8 (≈ 7.55 µM) | 8 (≈ 7.55 µM) | 8 (≈ 7.55 µM) | 1 (≈ 0.944 µM) | CCCN(CCC)C[C@H]1/C=C(C)/C=C/C(=O)[C@H](C)C[C@H](CCN(Cc2ccc(Br)cc2)Cc2cn(-c3cnc4ccccc4c3)nn2)[C@H](O[C@@H]2O[C@H](C)[C@@H](O)[C@H](N(C)C)[C@H]2O)[C@@H](C)[C@H](O)CC(=O)O[C@@H]1CC |
| 8 (≈ 9.28 µM) | 8 (≈ 9.28 µM) | 8 (≈ 9.28 µM) | 1 (≈ 1.16 µM) | CC[C@H]1OC(=O)C[C@@H](O)[C@H](C)[C@@H](O[C@@H]2O[C@H](C)[C@@H](O)[C@H](N(C)C)[C@H]2O)[C@@H](CCN(C)Cc2cn(-c3cnc4ccccc4c3)nn2)C[C@@H](C)C(=O)/C=C/C(C)=C/[C@@H]1CN(C)CC |
| 4 (≈ 4.02 µM) | 16 (≈ 16.1 µM) | 8 (≈ 8.04 µM) | 0.5 (≈ 0.502 µM) | CC[C@H]1OC(=O)C[C@@H](O)[C@H](C)[C@@H](O[C@@H]2O[C@H](C)[C@@H](O)[C@H](N(C)C)[C@H]2O)[C@@H](CCN(Cc2ccc(N(C)C)cc2)Cc2cn(-c3cnc4ccccc4c3)nn2)C[C@@H](C)C(=O)/C=C/C(C)=C/[C@@H]1CN(CC)CC |
| 4 (≈ 4.25 µM) | 8 (≈ 8.49 µM) | 16 (≈ 17 µM) | 1 (≈ 1.06 µM) | CC[C@H]1OC(=O)C[C@@H](O)[C@H](C)[C@@H](O[C@@H]2O[C@H](C)[C@@H](O)[C@H](N(C)C)[C@H]2O)[C@@H](CCN(Cc2cn(-c3cnc4ccccc4c3)nn2)Cc2ccco2)C[C@@H](C)C(=O)/C=C/C(C)=C/[C@@H]1CN(CC)CC |
| 4 (≈ 4.07 µM) | 16 (≈ 16.3 µM) | 8 (≈ 8.14 µM) | 0.5 (≈ 0.509 µM) | CC[C@H]1OC(=O)C[C@@H](O)[C@H](C)[C@@H](O[C@@H]2O[C@H](C)[C@@H](O)[C@H](N(C)C)[C@H]2O)[C@@H](CCN(Cc2ccc(OC)cc2)Cc2cn(-c3cnc4ccccc4c3)nn2)C[C@@H](C)C(=O)/C=C/C(C)=C/[C@@H]1CN(CC)CC |
